This is an account of results in patent US4916065A (priority 1988, dated 1990).

By IC50 is commonly meant the concentration that inhibits the measured activity by half.

The test system of experiment [1] is Clostridium difficile A21675. Briefly: Antibacterial MIC, serial agar dilution. Type of experiment: cell-based. The note with it: Clostridioides difficile, anaerobic, GAM agar, clindamycin-resistant. (In general: In agar dilution the substance is mixed into plates at graded concentrations.)
The subject of experiment [2] is Bacteroides fragilis A22534. The experiment is described as follows: Antibacterial MIC, serial agar dilution. Type of experiment: cell-based. The note with it: anaerobic, GAM agar, ampicillin-resistant, read-out: MIC.
In experiment [3] the test system is Propionibacterium acnes A21933. Briefly: Antibacterial MIC, serial agar dilution. Type of experiment: cell-based. The note with it: Cutibacterium acnes, anaerobic, GAM agar.
In experiment [4] the test system is Bacteroides fragilis A22693. The experiment is described as follows: Antibacterial MIC, serial agar dilution. Type of experiment: cell-based. The note with it: anaerobic, GAM agar.
Experiment [5] deals with Peptostreptococcus anaerobius A21905. Briefly: Antibacterial MIC, serial agar dilution. Format: cell-based. The note with it: anaerobic, GAM agar, read-out: MIC.
Experiment [6] deals with Clostridium perfringens A9635. Briefly: microbe, parasite or virus in culture. Type of experiment: cell-based.
The subject of the next experiment is Moser. Briefly: In vitro cytotoxicity. The note with it: Homo sapiens; 72 hours, neutral red, 540 nm. Type of experiment: cell-based.
Another experiment concerns HCT-116. The experiment is described as follows: In vitro cytotoxicity. Format: cell-based. The note with it: Homo sapiens, 72 hours, neutral red, 540 nm.
In experiment [7] the test system is DNA synthesis in L1210 cells. The experiment is described as follows: Inhibition of macromolecule synthesis in L1210 leukemia. The note with it: Mus musculus; 3H-thymidine, L1210, 15 min + 60 min, 37° C. Format: cell-based.
The test system of experiment [8] is RNA synthesis in L1210 cells. The experiment is described as above. Format: cell-based. The note with it: Mus musculus; 14C-uridine, L1210, 15 min + 60 min, 37° C.
Another experiment relates to B16-F10. Briefly: In vitro cytotoxicity. Type of experiment: cell-based, murine. The note with it: Mus musculus, 72 hours, neutral red, 540 nm.
Experiment [9] has as its system Protein synthesis in L1210 cells. The experiment is described as follows: Inhibition of macromolecule synthesis in L1210 leukemia. Type of experiment: cell-based. The note with it: Mus musculus; 3H-leucine, L1210, 15 min + 60 min, 37° C.
Another experiment deals with Escherichia coli A9624. Briefly: Antibacterial MIC, serial agar dilution. Format: cell-based. The note with it: aerobic, nutrient agar, kanamycin-resistant.
Experiment [10] deals with Morganella morganii A9553. Briefly: Antibacterial MIC, serial agar dilution. The note with it: aerobic, nutrient agar. Type of experiment: cell-based.
Experiment [11] has as its system Staphylococcus epidermidis A22152. Briefly: Antibacterial MIC, serial agar dilution. Type of experiment: cell-based. The note with it: aerobic, nutrient agar, kanamycin-resistant.
Experiment [12] concerns Staphylococcus epidermidis D153. Briefly: Antibacterial MIC, serial agar dilution. Type of experiment: cell-based. The note with it: aerobic, nutrient agar.
Another experiment has as its system Escherichia coli NIHJ. The experiment is described as follows: Antibacterial MIC, serial agar dilution. Format: cell-based. The note with it: aerobic, nutrient agar.
Experiment [13] relates to Serratia marcescens A20222. The experiment is described as follows: Antibacterial MIC, serial agar dilution. The note with it: aerobic, nutrient agar. Format: cell-based.
For experiment [14], the system named is Staphylococcus aureus A20234. Briefly: Antibacterial MIC, serial agar dilution. The note with it: aerobic, nutrient agar, kanamycin-resistant. Format: cell-based.
The next experiment has as its system Proteus vulgaris A9436. Briefly: Antibacterial MIC, serial agar dilution. The note with it: aerobic, nutrient agar. Type of experiment: cell-based.
For experiment [15], the system named is Staphylococcus aureus 209P. The experiment is described as follows: Antibacterial MIC, serial agar dilution. Format: cell-based. The note with it: aerobic, nutrient agar.
For another experiment, the system named is Micrococcus luteus 1001. Briefly: Antibacterial MIC, serial agar dilution. Format: cell-based. The note with it: aerobic, nutrient agar.
In a further experiment the test system is Escherichia coli A20665. Briefly: Antibacterial MIC, serial agar dilution. The note with it: aerobic, nutrient agar, kanamycin-resistant. Format: cell-based.
Experiment [16] has as its system Escherichia coli A20341-1. Briefly: Antibacterial MIC, serial agar dilution. Format: cell-based. The note with it: A203411, aerobic, nutrient agar, ampicillin-resistant.
Experiment [17] deals with Bacillus subtilis PCI-219. The experiment is described as follows: Antibacterial MIC, serial agar dilution. The note with it: PCI219, aerobic, nutrient agar. Type of experiment: cell-based.
In another experiment the test system is Escherichia coli Juhl. Briefly: Antibacterial MIC, serial agar dilution. The note with it: aerobic, nutrient agar. Type of experiment: cell-based.
Experiment [18] concerns Staphylococcus aureus A15097. Briefly: Antibacterial MIC, serial agar dilution. The note with it: aerobic, nutrient agar, methicillin-resistant. Type of experiment: cell-based.
The subject of experiment [19] is Enterobacter cloacae A9659. The experiment is described as follows: Antibacterial MIC, serial agar dilution. Format: cell-based. The note with it: aerobic, nutrient agar.
For experiment [20], the system named is Staphylococcus aureus BX1633. The experiment is described as follows: Antibacterial MIC, serial agar dilution. Type of experiment: cell-based. The note with it: aerobic, nutrient agar, ampicillin-resistant.
A further experiment has as its system Proteus mirabilis A9554. Briefly: Antibacterial MIC, serial agar dilution. The note with it: aerobic, nutrient agar. Format: cell-based.
The test system of experiment [21] is Staphylococcus aureus Smith. The experiment is described as follows: Antibacterial MIC, serial agar dilution. Type of experiment: cell-based. The note with it: aerobic, nutrient agar.
Experiment [22] concerns Klebsiella pneumoniae D11. The experiment is described as follows: Antibacterial MIC, serial agar dilution. Type of experiment: cell-based. The note with it: aerobic, nutrient agar.
Experiment [23] has as its system Enterococcus faecalis A9612. The experiment is described as follows: Antibacterial MIC, serial agar dilution. The note with it: aerobic, nutrient agar. Format: cell-based.
Experiment [24] concerns Pseudomonas aeruginosa A9930. Briefly: Antibacterial MIC, serial agar dilution. Format: cell-based. The note with it: aerobic, nutrient agar.
In experiment [25] the test system is Klebsiella pneumoniae A20680. The experiment is described as follows: Antibacterial MIC, serial agar dilution. Format: cell-based. The note with it: aerobic, nutrient agar, kanamycin-resistant.

In brackets after ≈: the same amount, converted by molar mass.

With `CCC[C@@H]1C[C@@H](C(=O)N[C@@H]([C@H]2O[C@H](SC)[C@H](O)[C@@H](O)[C@H]2O)[C@H](C)Cl)N(C)C1` [Clindamycin, reference compound], the MIC was more than 100 µg/mL in experiment [1]; 0.8 µg/mL (≈ 1.88 µM) in [2]; 0.4 µg/mL (≈ 0.941 µM) in experiment [3]; 0.05 µg/mL (≈ 0.118 µM) in experiment [4]; 0.4 µg/mL (≈ 0.941 µM) in experiment [5]; 0.025 µg/mL (≈ 0.0588 µM) in experiment [6].
Take `CO[C@@]12[C@H](COC(N)=O)C3=C(C(=O)C(C)=C(N)C3=O)N1C[C@@H]1N[C@@H]12` [Mitomycin C, reference compound]: the 50% inhibitory concentration (IC50) was 1.2 µg/mL (≈ 3.59 µM) in the experiment on Moser; 0.8 µg/mL (≈ 2.39 µM) in the experiment on HCT-116; 1.7 µg/mL in experiment [7]; more than 100 µg/mL in experiment [8]; 0.5 µg/mL (≈ 1.5 µM) in the experiment with B16-F10; more than 100 µg/mL in [9].
With `NC[C@H]1O[C@H](O[C@H]2[C@H](O)[C@@H](O[C@H]3O[C@H](CO)[C@@H](O)[C@H](N)[C@H]3O)[C@H](N)C[C@@H]2N)[C@H](O)[C@@H](O)[C@@H]1O` [Kanamycin A, reference compound], the MIC was more than 100 µg/mL with Escherichia coli A9624; 3.1 µg/mL (≈ 6.4 µM) in experiment [10]; 12.5 µg/mL (≈ 25.8 µM) in experiment [11]; 0.4 µg/mL (≈ 0.826 µM) in experiment [12]; 1.6 µg/mL (≈ 3.3 µM) against Escherichia coli NIHJ; 6.3 µg/mL (≈ 13 µM) in experiment [13]. Further, the MIC is 100 µg/mL (≈ 206 µM) in [14]; 0.4 µg/mL (≈ 0.826 µM) in the experiment on Proteus vulgaris A9436; 0.2 µg/mL (≈ 0.413 µM) in [15]; 3.1 µg/mL (≈ 6.4 µM) with Micrococcus luteus 1001; more than 100 µg/mL against Escherichia coli A20665; 6.3 µg/mL (≈ 13 µM) in experiment [16]. In addition, the MIC stood at 0.2 µg/mL (≈ 0.413 µM) in [17]; 6.3 µg/mL (≈ 13 µM) in the experiment on Escherichia coli Juhl; 0.8 µg/mL (≈ 1.65 µM) in experiment [18]; 3.1 µg/mL (≈ 6.4 µM) in experiment [19]; 0.8 µg/mL (≈ 1.65 µM) in experiment [20]; 3.1 µg/mL (≈ 6.4 µM) against Proteus mirabilis A9554. For the same molecule, the MIC is 0.8 µg/mL (≈ 1.65 µM) in [21]; 0.4 µg/mL (≈ 0.826 µM) in [22]; 25 µg/mL (≈ 51.6 µM) in experiment [23]; 25 µg/mL (≈ 51.6 µM) in [24]; more than 100 µg/mL in experiment [25].
